Our source for the IC50 values is patent publication US11590139B2, “Substituted aminopurine compounds, compositions thereof, and methods of treatment therewith” (Signal Pharmaceuticals, LLC, priority 2014, dated 2023).

SMILES strings stand for the structures.

The test system of one test is Lox-IMVI melanoma cell line. The test can be described thus: Lox-IMVI anti-proliferative assay (growth inhibition, Cell Titer-Glo). As to conditions: Homo sapiens; IC50 activity level in the cell-based Lox-IMVI anti-proliferative assay; read-out: Activity. Type of test: cell-based, human. A digest of the protocol:
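Cells grown in RPMI + 10% FBS were exposed to compound at 0.5 nM to 10 μM (10-point, 3-fold dilution, duplicate, 0.2% DMSO final) for 72 h at 37 °C, 5% CO2. Viability was read by ATP luminescence at t0 and 72 h. IC50 came from a four-parameter logistic fit normalized to DMSO control.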
Take `C[C@@H](CO)Nc1ncc2nc(Nc3cc(Cl)ccc3F)n([C@H]3CC[C@@H](C(N)=O)CC3)c2n1` [Example 171, (1R,4s)-4-(8-(5-chloro-2-fluorophenylamino)-2-((S)-1-hydroxypropan-2-ylamino)-9H-purin-9-yl)cyclohexanecarboxamide]: the IC50 was > 1000 nM.
As for `NC(=O)[C@H]1CC[C@@H](n2c(Nc3c(F)cc(Cl)cc3Cl)nc3cnc(NC4CCC(F)(F)CC4)nc32)CC1` [Example 186, (1s,4s)-4-(8-(2,4-dichloro-6-fluorophenylamino)-2-(4,4-difluorocyclohexylamino)-9H-purin-9-yl)cyclohexanecarboxamide], the IC50 was < 250 nM.
As for `NC(=O)[C@H]1CC[C@@H](n2c(Nc3cc(F)c(Cl)cc3F)nc3cnc(NC4CCC(F)(F)CC4)nc32)CC1` [Example 238, (1s,4s)-4-(8-(4-chloro-2,5-difluorophenylamino)-2-(4,4-difluorocyclohexylamino)-9H-purin-9-yl)cyclohexanecarboxamide], the IC50 was > 1000 nM.
As to `NC(=O)[C@H]1CC[C@@H](n2c(Nc3c(Cl)cc(Cl)cc3Cl)nc3cnc(N[C@H]4CCOC4)nc32)CC1` [Example 87, (1R,4s)-4-(2-((S)-tetrahydrofuran-3-ylamino)-8-(2,4,6-trichlorophenylamino)-9H-purin-9-yl)cyclohexanecarboxamide], the IC50 was in the range of 500 to 1000 nM.
Consider `CC(=O)N1CCC(Nc2ncc3nc(Nc4c(F)cc(Cl)cc4Cl)n([C@H]4CC[C@@H](C(N)=O)CC4)c3n2)CC1` [Example 198, (1s,4s)-4-(2-(1-acetylpiperidin-4-ylamino)-8-(2,4-dichloro-6-fluorophenylamino)-9H-purin-9-yl)cyclohexanecarboxamide], for which the IC50 was > 1000 nM.
Still for that read-out and setting: next, `NC(=O)[C@H]1CC[C@@H](n2c(Nc3c(Cl)cccc3Cl)nc3cnc(NC4COCC4O)nc32)CC1` (stereo partly drawn) [Example 180, (1s,4s)-4-(8-(2,6-dichlorophenylamino)-2-(4-hydroxytetrahydrofuran-3-ylamino)-9H-purin-9-yl)cyclohexanecarboxamide]: > 1000 nM; `CC(C)(C)OC(=O)N1CCC[C@@H](Nc2ncc3nc(Nc4c(F)cc(F)cc4Cl)n([C@H]4CC[C@@H](C(N)=O)CC4)c3n2)C1` [Example 161, (R)-tert-butyl 3-(9-((1s,4S)-4-carbamoylcyclohexyl)-8-(2-chloro-4,6-fluorophenylamino)-9H-purin-2-ylamino)piperidine-1-carboxylate]: > 1000 nM.
In the case of `CC1(C)CC[C@@H](Nc2ncc3nc(Nc4c(F)cccc4F)n([C@H]4CC[C@@H](C(N)=O)CC4)c3n2)C[C@H]1O` [Example 382, (1S,4s)-4-(8-(2,6-difluorophenylamino)-2-((1R,3R)-3-hydroxy-4,4-dimethylcyclohexylamino)-9H-purin-9-yl)cyclohexanecarboxamide], the IC50 is > 1000 nM.
With `NC(=O)[C@H]1CC[C@@H](n2c(Nc3ccc(F)c(F)c3F)nc3cnc(N[C@@H]4CC[C@@H](O)C4)nc32)CC1` [Example 220, (1S,4s)-4-(2-((1R,3R)-3-hydroxycyclopentylamino)-8-(2,3,4-trifluorophenylamino)-9H-purin-9-yl)cyclohexanecarboxamide], the IC50 is > 1000 nM.
Regarding `NC(=O)[C@H]1CC[C@@H](n2c(Nc3c(F)cc(Cl)cc3F)nc3cnc(NC4CC(F)(F)C4)nc32)CC1` [Example 229, (1s,4s)-4-(8-(4-chloro-2,6-difluorophenylamino)-2-(3,3-difluorocyclobutylamino)-9H-purin-9-yl)cyclohexanecarboxamide], the IC50 is > 1000 nM.
On to `Cc1cccc(Nc2nc3cnc(NC4CCOCC4)nc3n2[C@H]2CC[C@@H](C(N)=O)CC2)c1Cl` [Example 69, (1s,4s)-4-(8-(2-chloro-3-methylphenylamino)-2-(tetrahydro-2H-pyran-4-ylamino)-9H-purin-9-yl)cyclohexanecarboxamide], for which the IC50 was > 1000 nM.
As to `NC(=O)[C@H]1CC[C@@H](n2c(Nc3ccc(Cl)cc3Cl)nc3cnc(NC4COCC4O)nc32)CC1` (stereo partly drawn) [Example 191, (1s,4s)-4-(8-(2,4-dichlorophenylamino)-2-(4-hydroxytetrahydrofuran-3-ylamino)-9H-purin-9-yl)cyclohexanecarboxamide], the IC50 is > 1000 nM.

Still in this test, the particulars now being: Homo sapiens; Lox-IMVI anti-proliferative assay, IC50 activity level; read-out: Activity.
`NC(=O)[C@H]1CC[C@@H](n2c(Nc3c(F)cc(Cl)cc3Cl)nc3cnc(N[C@@H]4CCC(F)(F)C4)nc32)CC1` [Example 592, (1S,4s)-4-(8-(2,4-dichloro-6-fluorophenylamino)-2-((R)-3,3-difluorocyclopentylamino)-9H-purin-9-yl)cyclohexanecarboxamide]: the IC50 was < 250 nM.
For the molecule `NC(=O)[C@H]1CC[C@@H](n2c(Nc3c(Cl)cc(F)cc3Cl)nc3cnc(N[C@H]4CCC[C@H](O)C4)nc32)CC1` [Example 462, (1R,4s)-4-(8-(2,6-dichloro-4-fluorophenylamino)-2-((1S,3S)-3-hydroxycyclohexylamino)-9H-purin-9-yl)cyclohexanecarboxamide], the IC50 is > 1000 nM.
In the case of `C[C@]1(C(N)=O)CC[C@@H](n2c(Nc3c(F)cc(C#N)cc3Cl)nc3cnc(NC4CC(F)(F)C4)nc32)CC1` [Example 583, (1s,4s)-4-(8-(2-chloro-4-cyano-6-fluorophenylamino)-2-(3,3-difluorocyclobutylamino)-9H-purin-9-yl)-1-methylcyclohexanecarboxamide], the IC50 was < 250 nM.
Still for that read-out and setting: the value for `NC(=O)[C@H]1CC[C@@H](n2c(Nc3c(F)cc(Cl)cc3F)nc3cnc(N[C@@H]4CCO[C@H](CO)C4)nc32)CC1` [Example 445, (1S,4s)-4-(8-(4-chloro-2,6-difluorophenylamino)-2-((2S,4R)-2-(hydroxymethyl)tetrahydro-2H-pyran-4-ylamino)-9H-purin-9-yl)cyclohexanecarboxamide] was 250 to 500 nM.
Take `C[C@]1(C(N)=O)CC[C@@H](n2c(Nc3c(Cl)cc(F)cc3Cl)nc3cnc(NC4CC(F)(F)C4)nc32)CC1` [Example 582, (1s,4s)-4-(8-(2,6-dichloro-4-fluorophenylamino)-2-(3,3-difluorocyclobutylamino)-9H-purin-9-yl)-1-methylcyclohexanecarboxamide]: the IC50 was < 250 nM.
`NC(=O)[C@H]1CC[C@@H](n2c(Nc3c(F)cc(F)cc3Cl)nc3cnc(N[C@H]4CCC[C@H](O)C4)nc32)CC1` [Example 459, (1R,4s)-4-(8-(2-chloro-4,6-difluorophenylamino)-2-((1S,3S)-3-hydroxycyclohexylamino)-9H-purin-9-yl)cyclohexanecarboxamide]: the IC50 is > 1000 nM.
For `NC(=O)[C@H]1CC[C@@H](n2c(Nc3c(Cl)cc(Cl)cc3Cl)nc3cnc(N[C@@H]4CCC[C@@H](O)C4)nc32)CC1` [Example 415, (1S,4s)-4-(2-((1R,3R)-3-hydroxycyclohexylamino)-8-(2,4,6-trichlorophenylamino)-9H-purin-9-yl)cyclohexanecarboxamide], the IC50 is 500 to 1000 nM.

Staying with this test, now noted: Homo sapiens; Lox-IMVI melanoma cell line, anti-proliferative assay; read-out: Activity (IC50 activity level).
For the molecule `CCN1CCC[C@@H](Nc2ncc3nc(Nc4c(F)cc(Cl)cc4Cl)n([C@H]4CC[C@@H](C(N)=O)CC4)c3n2)C1` [Example 734, (1S,4s)-4-(8-(2,4-dichloro-6-fluorophenylamino)-2-((R)-1-ethylpiperidin-3-ylamino)-9H-purin-9-yl)cyclohexanecarboxamide], the IC50 was > 1000 nM.
On to `NC(=O)[C@H]1CC[C@@H](n2c(Nc3c(F)cc(Cl)cc3F)nc3cnc(NC[C@@H]4CCCC[C@@H]4O)nc32)CC1` [Example 657, (1R,4s)-4-(8-(4-chloro-2,6-difluorophenylamino)-2-(((1S,2S)-2-hydroxycyclohexyl)methylamino)-9H-purin-9-yl)cyclohexanecarboxamide], for which the IC50 was > 1000 nM.
Turning to `NC(=O)[C@H]1CC[C@@H](n2c(Nc3c(Cl)cc(Cl)cc3Cl)nc3cnc(N[C@@H]4CCCN(Cc5ccccc5)C4)nc32)CC1` [Example 752, (1S,4s)-4-(2-((R)-1-benzylpiperidin-3-ylamino)-8-(2,4,6-trichlorophenylamino)-9H-purin-9-yl)cyclohexanecarboxamide], the IC50 was > 1000 nM.
For `C[C@]1(C(N)=O)CC[C@@H](n2c(Nc3c(F)cc(F)cc3Cl)nc3cnc(N[C@H]4CCOC[C@H]4F)nc32)CC1` [Example 724, (1R,4s)-4-(8-(2-chloro-4,6-difluorophenylamino)-2-((3S,4S)-3-fluorotetrahydro-2H-pyran-4-ylamino)-9H-purin-9-yl)-1-methylcyclohexanecarboxamide], the IC50 was < 250 nM.
As to `C[C@@H]1COCC[C@H]1Nc1ncc2nc(Nc3c(F)cc(F)cc3Cl)n([C@H]3CC[C@@](C)(C(N)=O)CC3)c2n1` [Example 725, (1S,4s)-4-(8-(2-chloro-4,6-difluorophenylamino)-2-((3S,4R)-3-methyltetrahydro-2H-pyran-4-ylamino)-9H-purin-9-yl)-1-methylcyclohexanecarboxamide], the IC50 was < 250 nM.
As to `NC(=O)[C@H]1CC[C@@H](n2c(Nc3c(F)cc(Cl)cc3Cl)nc3cnc(NC[C@@H]4CCCC[C@@H]4O)nc32)CC1` [Example 655, (1R,4s)-4-(8-(2,4-dichloro-6-fluorophenylamino)-2-(((1S,2S)-2-hydroxycyclohexyl)methylamino)-9H-purin-9-yl)cyclohexanecarboxamide], the IC50 was > 1000 nM.
Same read-out and setting: the value for `NC(=O)[C@H]1CC[C@@H](n2c(Nc3c(F)cc(F)cc3Cl)nc3cnc(N[C@@H]4CCCN(c5ccccc5)C4)nc32)CC1` [Example 742, (1S,4s)-4-(8-(2-chloro-4,6-difluorophenylamino)-2-((R)-1-phenylpiperidin-3-ylamino)-9H-purin-9-yl)cyclohexanecarboxamide] was > 1000 nM.
On the same count and under the same terms, the value for `N#Cc1ccc(Nc2nc3cnc(NC4CCCC4)nc3n2[C@H]2CC[C@@H](C(N)=O)CC2)c(Cl)c1Cl` [Example 693, (1s,4s)-4-(2-(cyclopentylamino)-8-(2,3-dichloro-4-cyanophenylamino)-9H-purin-9-yl)cyclohexanecarboxamide] was > 1000 nM.
